From paper PMC12597212, “Biaryl Phosphate‐Based Inhibitors of the Transcription Factor STAT4” (Chemmedchem, 2025)

What was measured:
STAT4 SH2 domain = target: T1, STAT4 SH2 domain (Homo sapiens, UniProt Q14765); assay: Competitive fluorescence polarization (FP) assay, STAT4; format: binding; details: for IC50: 28 nM STAT4, 10 nM tracer peptide; for Ki: Ki calculated from IC50, mean ± SD, n = 3
T1 sequence (Q14765 1-748): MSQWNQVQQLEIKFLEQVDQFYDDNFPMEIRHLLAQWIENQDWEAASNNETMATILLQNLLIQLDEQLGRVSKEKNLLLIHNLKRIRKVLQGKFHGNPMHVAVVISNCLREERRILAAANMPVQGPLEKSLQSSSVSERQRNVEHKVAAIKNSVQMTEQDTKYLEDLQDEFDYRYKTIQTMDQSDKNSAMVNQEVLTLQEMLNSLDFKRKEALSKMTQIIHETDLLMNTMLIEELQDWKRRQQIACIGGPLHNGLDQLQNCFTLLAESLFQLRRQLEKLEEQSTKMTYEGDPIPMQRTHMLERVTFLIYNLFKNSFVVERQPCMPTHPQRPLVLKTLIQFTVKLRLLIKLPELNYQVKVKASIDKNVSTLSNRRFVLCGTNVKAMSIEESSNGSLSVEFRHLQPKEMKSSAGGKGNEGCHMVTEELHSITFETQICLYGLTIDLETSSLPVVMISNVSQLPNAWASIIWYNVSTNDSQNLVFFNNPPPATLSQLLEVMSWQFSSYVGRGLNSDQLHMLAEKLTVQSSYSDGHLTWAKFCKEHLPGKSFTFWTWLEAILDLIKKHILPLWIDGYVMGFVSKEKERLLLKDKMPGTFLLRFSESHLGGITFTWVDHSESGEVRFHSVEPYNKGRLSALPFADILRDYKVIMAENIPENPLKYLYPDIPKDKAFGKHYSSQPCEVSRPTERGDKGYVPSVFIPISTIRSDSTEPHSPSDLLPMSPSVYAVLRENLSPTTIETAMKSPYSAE
Description: (§1) Fluorescence polarization assays
Competitive fluorescence polarization assays were carried as previously described.[1] Proteins […]
fluorescent-labeled peptides were used as tracers: 5-carboxyfluorescein-GpYLPQNID-OH for STAT4; 5-carboxyfluorescein-GpYDKPHVL for STAT1; 5-carboxyfluorescein-GpYLPQTV-NH2 for STAT3; 5-carboxyfluorescein-GpYLVLDKW for STAT5a/b, and 5-carboxyfluorescein- […]
mM Tris (pH 8.0), 50 mM NaCl, 1 mM EDTA, 1 mM DTT, 0.1 % Nonidet P-40 substitute, 2 %
DMSO. Proteins and test compound were incubated for 1 h at room temperature before the […]
(1 picture or pasted object on this page, not shown here) […]
fluorescent-labeled peptide was added. Samples were transferred to 384-well microtiter plates and fluorescence polarization was read after an additional 60 min of incubation time.
Experiments were carried out in triplicate. Percent binding was calculated based on a logarithmic curve fit using OriginPro 8G software. Conversion of IC50 values to Ki-values was achieved using the published equation[2] embedded in the corresponding Excel spread sheet […]
https://websites.umich.edu/~shaomengwanglab/software/calc_ki/ind ex.html.
(§2) Error bars represent standard deviations. […]
(§3) Experiments were carried out in triplicate. […]

STAT6 = target: T2, STAT6 (Homo sapiens, UniProt P42226); assay: Competitive fluorescence polarization (FP) assay, STAT6; format: binding; details: for IC50: 106 nM STAT6, 10 nM tracer peptide; for Ki: Ki calculated from IC50, mean ± SD, n = 3
T2 sequence (P42226 1-847): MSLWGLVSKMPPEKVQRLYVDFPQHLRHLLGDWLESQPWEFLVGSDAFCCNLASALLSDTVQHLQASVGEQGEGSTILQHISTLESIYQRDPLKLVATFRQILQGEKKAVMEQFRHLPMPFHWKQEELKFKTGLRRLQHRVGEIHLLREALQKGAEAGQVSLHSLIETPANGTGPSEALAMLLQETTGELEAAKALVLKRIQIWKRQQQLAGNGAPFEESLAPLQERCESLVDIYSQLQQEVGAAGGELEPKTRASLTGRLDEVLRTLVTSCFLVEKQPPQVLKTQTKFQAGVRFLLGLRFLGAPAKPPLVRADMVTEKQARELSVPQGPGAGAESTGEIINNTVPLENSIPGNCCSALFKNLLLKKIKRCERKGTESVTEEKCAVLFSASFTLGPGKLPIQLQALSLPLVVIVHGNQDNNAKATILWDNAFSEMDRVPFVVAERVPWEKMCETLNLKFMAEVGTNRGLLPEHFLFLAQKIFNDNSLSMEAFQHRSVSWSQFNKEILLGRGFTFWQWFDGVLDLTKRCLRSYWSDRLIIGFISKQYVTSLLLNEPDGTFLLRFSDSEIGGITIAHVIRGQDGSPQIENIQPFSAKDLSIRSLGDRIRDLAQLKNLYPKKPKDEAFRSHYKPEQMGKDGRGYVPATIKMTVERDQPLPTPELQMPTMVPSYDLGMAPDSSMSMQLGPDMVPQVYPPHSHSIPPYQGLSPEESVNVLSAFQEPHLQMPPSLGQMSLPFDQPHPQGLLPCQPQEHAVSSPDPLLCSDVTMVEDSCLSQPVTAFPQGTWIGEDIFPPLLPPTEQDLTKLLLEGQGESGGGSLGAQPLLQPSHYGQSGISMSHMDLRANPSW
Description: as §1
STAT4; 5-carboxyfluorescein-GpYDKPHVL for STAT1; 5-carboxyfluorescein-GpYLPQTV- […]
(§4) fluorescent-labeled peptide was added. Samples were transferred to 384-well microtiter plates […]
(§5) Experiments were carried out in triplicate. Percent binding was calculated based on a logarithmic curve fit using OriginPro 8G software. Conversion of IC50 values to Ki-values was […]
as §2, §3

STAT4 = target: T3, STAT4 (Homo sapiens, UniProt Q14765); assay: Isothermal titration calorimetry (ITC), binding to STAT4; details: 10 µM STAT4, 100 µM ligand, 25 °C, 10 mM Tris pH 8.0, 50 mM NaCl, 1 % DMSO; n = 3
T3 construct: 6xHis; made in house
T3 sequence (Q14765 1-748): T1 sequence (Q14765 1-748)
Description: as §4, §5
Error bars represent standard deviations.
Isothermal Titration Calorimetry […]
dialysis tubing with a 50 kDa cut-off. ITC experiments were performed using a VP-ITC Micro […]
ITC buffer (final ligand concentration: 100 µM). 1 % (v/v) DMSO was added to the buffers […]
detection of dilution heat. Proteins were degassed before the experiments using a ThermoVac sample degassing station. […]
site binding model was used for data fitting. Figures were generated using GUSSI. Experiments were carried out in triplicate.
General synthetic methods
Method 1: Suzuki coupling […]
three times with ethyl acetate. The combined organic layers were washed with water, after which they were dried over Na2SO4 and filtered. The volatiles were removed under reduced

Row | Structure (SMILES) | IC50 (STAT4 SH2 domain) [µM] | Ki (STAT4 SH2 domain) [µM] | IC50 (STAT6) [µM] | Ki (STAT6) [µM] | Kd (STAT4) [µM]
1 | O=P(O)(O)Oc1ccc2c(c1)oc1ccccc12 [compound 12] | 1.78 | 0.71 ± 0.08 | 53 | 26 ± 4 | –
2 | O=P(O)(O)Oc1ccc2c(c1)Cc1ccccc1-2 [compound 11] | 1.52 | 0.61 ± 0.03 | 23 | 12 ± 1 | –
3 | O=P(O)(O)Oc1ccc(-c2ccsc2)cc1 [8a] | 1.2 | 0.56 ± 0.06 | 15.8 | 7.8 ± 0.7 | –
4 | O=P(O)(O)Oc1ccc(-c2nccs2)cc1 [8c] | 8.8 | 4.1 ± 0.2 | 112 | 55 ± 1 | –
5 | Cc1cc(-c2ccc(OP(=O)(O)O)c(F)c2)cs1 [8f] | 0.37 | 0.18 ± 0.03 | 34 | 17 ± 2 | 3.1 ± 1
6 | O=P(O)(O)Oc1ccc(-c2cccs2)cc1 [8b] | 1.09 | 0.5 ± 0.03 | 19 | 9.4 ± 0.3 | –
